Data: paper PMC5531531, “A synthetic cationic antimicrobial peptide inhibits inflammatory response and the NLRP3 inflammasome by neutralizing LPS and ATP” (PLoS ONE, 2017)
No end group written: not given here.

What follows are sequences tested on LPS-induced NO generation in RAW264.7 cells (assay: NO inhibitory assay (Griess reaction), LPS-activated RAW 264.7). Conditions: E. coli LPS 0.1 μg/ml, 24 h, Griess reaction; mean of triplicate wells from at least three experiments.
Assay type: cell-based, mouse
Experimental: RAW 264.7 cells (2 × 10^5 in 0.5 ml of medium) were seeded in 24-well plates and then incubated with or without LPS (0.1 μg/ml) in the absence or presence of AMP for 24 h. The effects of AMP on NO production were measured indirectly by analyzing nitrite levels using the Griess reaction as described in detail previously.

Sequence | ED50, effective dose of AMPs that inhibits 50% of LPS-induced NO generation in RAW264.7 cells [µM]
GYNYAKKLANLAKKFANALW [GW-H1] | >8
GAKALTKAATAFTKFYKTIW [GW-A4] | 4
GIKIAKKAITIAKKIAKIYW [GW-Q6] | 4
GLTFLKKILNFAKKIYTAIW [GW-H3] | 4
GAKYAKYIYNFYKYIAKYIW [GW-A1] | >8
GWGSFFKKAAHVGKHVGKAALTHYL [Ple, Pleurocidin, reference compound] | >8
GATYAKKIIKTITKIATTAW [GW-A5] | >8
GANAAKKFATIAKKFINYLW [GW-Q4] | >8
GIGKFLHSAKKWGKAFVGEIMNS [Peptide M2a, Magainin 2a, reference compound] | >8
GANLAKKFYTYINKFINYAW [GW-Q3] | 7
GANAAKKLATFAKKIFTAYW [GW-M1] | 4
GYKYYNKIYNYLNKYLKYAW [GW-H0] | 5
